Tested on: NCI-H719 tumor spheroids, viability
Experiment: Anticancer human tumor NCI-H719 cell line growth inhibition;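 note: spheroids exposed to compounds for seven days; percent viability relative to DMSO vehicle control as 100%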
Settings: second compound 31.6 µM; first compound 1 µM; hits give low values; spheroids with HUVEC and MSC
In short: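 Complex spheroids of malignant cells with endothelial cells and mesenchymal stem cells; agents alone or combined, from near clinical Cmax (or 10 microM if unknown) down in half-log steps, 0.25% DMSO final.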

First: CC1COCCN1c1cc(-c2ccnn2C)c2ccnc(-c3ccn[nH]3)c2n1 (stereo unspecified) + Cn1nnc2c(C(N)=O)ncn2c1=O
Second: COc1ccc([C@@H](O)c2cc(-c3ncnc4cc(N5CCOCC5)ccc34)c(F)cc2Cl)nn1 + Cn1nnc2c(C(N)=O)ncn2c1=O
The viability, T/C of the first is lower: 8.01% for the first, 46.7% for the second.

First: COc1cc(C)[nH]c(=O)c1CN1CCc2c(Cl)cc(C(OC)C3COC3)c(Cl)c2C1=O (stereo unspecified) + Cn1nnc2c(C(N)=O)ncn2c1=O
Second: Cc1cc(C)c(CNC(=O)c2cc(-c3ccc(CN4CCOCC4)cc3)cc3c2cnn3C2CCCC2)c(=O)[nH]1 + Cn1nnc2c(C(N)=O)ncn2c1=O
The viability, T/C of the first is higher: 125% for the first, 108% for the second.

Molecule [2H]c1nc(C)nc([2H])c1-c1cc(NC[C@@H](C)c2cccc3c(C(=O)NC)ccnc23)ncn1 + Cn1nnc2c(C(N)=O)ncn2c1=O has a viability, T/C of 104%.

Same assay, conditions: second compound 31.6 µM; first compound 3.16 µM; hits give low values; spheroids with HUVEC and MSC

First: CC(C)n1c(=O)n(C)c2cnc3cc(F)c(-c4ccc(OCCCN5CCCCC5)nc4)cc3c21 + Cn1nnc2c(C(N)=O)ncn2c1=O
Second: COc1ccc([C@@H](O)c2cc(-c3ncnc4cc(N5CCOCC5)ccc34)c(F)cc2Cl)nn1 + Cn1nnc2c(C(N)=O)ncn2c1=O
The viability, T/C of the first is higher: 110% for the first, 30.4% for the second.

Going from CC1COCCN1c1cc(-c2ccnn2C)c2ccnc(-c3ccn[nH]3)c2n1 (stereo unspecified) + Cn1nnc2c(C(N)=O)ncn2c1=O to Cc1cc(C)c(CNC(=O)c2cc(-c3ccc(CN4CCOCC4)cc3)cc3c2cnn3C2CCCC2)c(=O)[nH]1 + Cn1nnc2c(C(N)=O)ncn2c1=O, the viability, T/C rises from 6.53% to 94.6%.

First: COc1cc(C)[nH]c(=O)c1CN1CCc2c(Cl)cc(C(OC)C3COC3)c(Cl)c2C1=O (stereo unspecified) + Cn1nnc2c(C(N)=O)ncn2c1=O
Second: [2H]c1nc(C)nc([2H])c1-c1cc(NC[C@@H](C)c2cccc3c(C(=O)NC)ccnc23)ncn1 + Cn1nnc2c(C(N)=O)ncn2c1=O
The viability, T/C of the first is higher: 118% for the first, 109% for the second.

Same assay, conditions: second compound 31.6 µM; first compound 10 µM; hits give low values; spheroids with HUVEC and MSC

First: CC(C)n1c(=O)n(C)c2cnc3cc(F)c(-c4ccc(OCCCN5CCCCC5)nc4)cc3c21 + Cn1nnc2c(C(N)=O)ncn2c1=O
Second: COc1ccc([C@@H](O)c2cc(-c3ncnc4cc(N5CCOCC5)ccc34)c(F)cc2Cl)nn1 + Cn1nnc2c(C(N)=O)ncn2c1=O
The viability, T/C of the first is higher: 94.4% for the first, 20.8% for the second.

Compared with CC1COCCN1c1cc(-c2ccnn2C)c2ccnc(-c3ccn[nH]3)c2n1 (stereo unspecified) + Cn1nnc2c(C(N)=O)ncn2c1=O, Cc1cc(C)c(CNC(=O)c2cc(-c3ccc(CN4CCOCC4)cc3)cc3c2cnn3C2CCCC2)c(=O)[nH]1 + Cn1nnc2c(C(N)=O)ncn2c1=O is higher in viability, T/C: 9.03% for the first, 85.7% for the second.

Compared with COc1cc(C)[nH]c(=O)c1CN1CCc2c(Cl)cc(C(OC)C3COC3)c(Cl)c2C1=O (stereo unspecified) + Cn1nnc2c(C(N)=O)ncn2c1=O, [2H]c1nc(C)nc([2H])c1-c1cc(NC[C@@H](C)c2cccc3c(C(=O)NC)ccnc23)ncn1 + Cn1nnc2c(C(N)=O)ncn2c1=O is lower in viability, T/C: 119% for the first, 82.4% for the second.

Same assay, conditions: second compound 100 µM; first compound 0.0316 µM; hits give low values; spheroids with HUVEC and MSC

Going from CC(C)n1c(=O)n(C)c2cnc3cc(F)c(-c4ccc(OCCCN5CCCCC5)nc4)cc3c21 + Cn1nnc2c(C(N)=O)ncn2c1=O to COc1ccc([C@@H](O)c2cc(-c3ncnc4cc(N5CCOCC5)ccc34)c(F)cc2Cl)nn1 + Cn1nnc2c(C(N)=O)ncn2c1=O, the viability, T/C falls from 104% to 89.9%.

Compared with CC1COCCN1c1cc(-c2ccnn2C)c2ccnc(-c3ccn[nH]3)c2n1 (stereo unspecified) + Cn1nnc2c(C(N)=O)ncn2c1=O, Cc1cc(C)c(CNC(=O)c2cc(-c3ccc(CN4CCOCC4)cc3)cc3c2cnn3C2CCCC2)c(=O)[nH]1 + Cn1nnc2c(C(N)=O)ncn2c1=O is higher in viability, T/C: 26.8% for the first, 101% for the second.

Going from COc1cc(C)[nH]c(=O)c1CN1CCc2c(Cl)cc(C(OC)C3COC3)c(Cl)c2C1=O (stereo unspecified) + Cn1nnc2c(C(N)=O)ncn2c1=O to [2H]c1nc(C)nc([2H])c1-c1cc(NC[C@@H](C)c2cccc3c(C(=O)NC)ccnc23)ncn1 + Cn1nnc2c(C(N)=O)ncn2c1=O, the viability, T/C falls from 109% to 87.1%.

Same assay, conditions: second compound 100 µM; first compound 0.1 µM; hits give low values; spheroids with HUVEC and MSC

Compared with CC(C)n1c(=O)n(C)c2cnc3cc(F)c(-c4ccc(OCCCN5CCCCC5)nc4)cc3c21 + Cn1nnc2c(C(N)=O)ncn2c1=O, CC1COCCN1c1cc(-c2ccnn2C)c2ccnc(-c3ccn[nH]3)c2n1 (stereo unspecified) + Cn1nnc2c(C(N)=O)ncn2c1=O is lower in viability, T/C: 86.8% for the first, 14.7% for the second.

With COc1cc(C)[nH]c(=O)c1CN1CCc2c(Cl)cc(C(OC)C3COC3)c(Cl)c2C1=O (stereo unspecified) + Cn1nnc2c(C(N)=O)ncn2c1=O the viability, T/C was 101%.

— PubChem BioAssay AID1845212 (Molecular Pharmacology Branch, DTP, NCI, 2023)
